Target: Aβ42 (Homo sapiens, UniProt P05067)
Test: Th-T (thioflavin-T) assay of Aβ42 aggregation
Assay type: biochemical
Conditions: for Th-T fluorescence, mean of three wells: compound at 50

Chain of Aβ42 (P05067 672-713): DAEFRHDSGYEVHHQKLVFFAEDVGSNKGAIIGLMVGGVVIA

C=C1CCC2C(C)(CCC=C(C)C)C(O)CCC2(C)C1Cc1c(OC)oc(CO)c(C(=O)OC)c1=O (stereo not drawn) [Compound 13]
Th-T fluorescence, mean of three wells (reading M54 of time course): 0.4653 | Th-T fluorescence, mean of three wells (reading M55 of time course): 0.4661 | Th-T fluorescence, mean of three wells (reading M56 of time course): 0.4654 | Th-T fluorescence, mean of three wells (reading M57 of time course): 0.4695 | Th-T fluorescence, mean of three wells (reading M58 of time course): 0.4698 | Th-T fluorescence, mean of three wells (reading M59 of time course): 0.4665 | Th-T fluorescence, mean of three wells (reading M60 of time course): 0.4689 | Th-T fluorescence, mean of three wells (reading M61 of time course): 0.471 | Th-T fluorescence, mean of three wells (reading M62 of time course): 0.4707 | Th-T fluorescence of Aβ42 with compound, mean of three wells (Fig. 7a source data) (concentration 10, unit not given, time-course reading M129): 1.537 | Th-T fluorescence of Aβ42 with compound, mean of three wells (Fig. 7a source data) (concentration 10, unit not given, time-course reading M130): 1.546 | Th-T fluorescence of Aβ42 with compound, mean of three wells (Fig. 7a source data) (concentration 10, unit not given, time-course reading M131): 1.547 | Th-T fluorescence of Aβ42 with compound, mean of three wells (Fig. 7a source data) (concentration 10, unit not given, time-course reading M132): 1.542 | Th-T fluorescence of Aβ42 with compound, mean of three wells (Fig. 7a source data) (concentration 10, unit not given, time-course reading M133): 1.541 | Th-T fluorescence of Aβ42 with compound, mean of three wells (Fig. 7a source data) (concentration 10, unit not given, time-course reading M134): 1.54 | Th-T fluorescence of Aβ42 with compound, mean of three wells (Fig. 7a source data) (concentration 10, unit not given, time-course reading M135): 1.5371 | Th-T fluorescence of Aβ42 with compound, mean of three wells (Fig. 7a source data) (concentration 10, unit not given, time-course reading M136): 1.543 | Th-T fluorescence of Aβ42 with compound, mean of three wells (Fig. 7a source data) (concentration 10, unit not given, time-course reading M137): 1.53 | Th-T fluorescence of Aβ42 with compound, mean of three wells (Fig. 7a source data) (concentration 10, unit not given, time-course reading M138): 1.542 | Th-T fluorescence of Aβ42 with compound, mean of three wells (Fig. 7a source data) (concentration 10, unit not given, time-course reading M139): 1.54 | Th-T fluorescence of Aβ42 with compound, mean of three wells (Fig. 7a source data) (concentration 10, unit not given, time-course reading M140): 1.544 | Th-T fluorescence of Aβ42 with compound, mean of three wells (Fig. 7a source data) (concentration 10, unit not given, time-course reading M141): 1.531 | Th-T fluorescence of Aβ42 with compound, mean of three wells (Fig. 7a source data) (concentration 10, unit not given, time-course reading M142): 1.539 | Th-T fluorescence of Aβ42 with compound, mean of three wells (Fig. 7a source data) (concentration 10, unit not given, time-course reading M143): 1.544 | Th-T fluorescence of Aβ42 with compound, mean of three wells (Fig. 7a source data) (concentration 10, unit not given, time-course reading M144): 1.537 | Th-T fluorescence of Aβ42 with compound, mean of three wells (Fig. 7a source data) (concentration 10, unit not given, time-course reading M145): 1.534 | Th-T fluorescence of Aβ42 with compound, mean of three wells (Fig. 7a source data) (concentration 20, unit not given, time-course reading M129): 1.025 | Th-T fluorescence of Aβ42 with compound, mean of three wells (Fig. 7a source data) (concentration 20, unit not given, time-course reading M130): 1.025 | Th-T fluorescence of Aβ42 with compound, mean of three wells (Fig. 7a source data) (concentration 20, unit not given, time-course reading M131): 1.024 | Th-T fluorescence of Aβ42 with compound, mean of three wells (Fig. 7a source data) (concentration 20, unit not given, time-course reading M132): 1.024 | Th-T fluorescence of Aβ42 with compound, mean of three wells (Fig. 7a source data) (concentration 20, unit not given, time-course reading M133): 1.026 | Th-T fluorescence of Aβ42 with compound, mean of three wells (Fig. 7a source data) (concentration 20, unit not given, time-course reading M134): 1.029 | Th-T fluorescence of Aβ42 with compound, mean of three wells (Fig. 7a source data) (concentration 20, unit not given, time-course reading M135): 1.025 | Th-T fluorescence of Aβ42 with compound, mean of three wells (Fig. 7a source data) (concentration 20, unit not given, time-course reading M136): 1.027 | Th-T fluorescence of Aβ42 with compound, mean of three wells (Fig. 7a source data) (concentration 20, unit not given, time-course reading M137): 1.027 | Th-T fluorescence of Aβ42 with compound, mean of three wells (Fig. 7a source data) (concentration 20, unit not given, time-course reading M138): 1.029 | Th-T fluorescence of Aβ42 with compound, mean of three wells (Fig. 7a source data) (concentration 20, unit not given, time-course reading M139): 1.029 | Th-T fluorescence of Aβ42 with compound, mean of three wells (Fig. 7a source data) (concentration 20, unit not given, time-course reading M140): 1.019 | Th-T fluorescence of Aβ42 with compound, mean of three wells (Fig. 7a source data) (concentration 20, unit not given, time-course reading M141): 1.021 | Th-T fluorescence of Aβ42 with compound, mean of three wells (Fig. 7a source data) (concentration 20, unit not given, time-course reading M142): 1.024 | Th-T fluorescence of Aβ42 with compound, mean of three wells (Fig. 7a source data) (concentration 20, unit not given, time-course reading M143): 1.022 | Th-T fluorescence of Aβ42 with compound, mean of three wells (Fig. 7a source data) (concentration 20, unit not given, time-course reading M144): 1.02 | Th-T fluorescence of Aβ42 with compound, mean of three wells (Fig. 7a source data) (concentration 20, unit not given, time-course reading M145): 1.019 | Th-T fluorescence of Aβ42 with compound, mean of three wells (Fig. 7a source data) (concentration 50, unit not given, time-course reading M129): 0.475 | Th-T fluorescence of Aβ42 with compound, mean of three wells (Fig. 7a source data) (concentration 50, unit not given, time-course reading M130): 0.4748 | Th-T fluorescence of Aβ42 with compound, mean of three wells (Fig. 7a source data) (concentration 50, unit not given, time-course reading M131): 0.479 | Th-T fluorescence of Aβ42 with compound, mean of three wells (Fig. 7a source data) (concentration 50, unit not given, time-course reading M132): 0.4776 | Th-T fluorescence of Aβ42 with compound, mean of three wells (Fig. 7a source data) (concentration 50, unit not given, time-course reading M133): 0.4741 | Th-T fluorescence of Aβ42 with compound, mean of three wells (Fig. 7a source data) (concentration 50, unit not given, time-course reading M134): 0.4743 | Th-T fluorescence of Aβ42 with compound, mean of three wells (Fig. 7a source data) (concentration 50, unit not given, time-course reading M135): 0.479 | Th-T fluorescence of Aβ42 with compound, mean of three wells (Fig. 7a source data) (concentration 50, unit not given, time-course reading M136): 0.4773 | Th-T fluorescence of Aβ42 with compound, mean of three wells (Fig. 7a source data) (concentration 50, unit not given, time-course reading M137): 0.4745 | Th-T fluorescence of Aβ42 with compound, mean of three wells (Fig. 7a source data) (concentration 50, unit not given, time-course reading M138): 0.4775 | Th-T fluorescence of Aβ42 with compound, mean of three wells (Fig. 7a source data) (concentration 50, unit not given, time-course reading M139): 0.4782 | Th-T fluorescence of Aβ42 with compound, mean of three wells (Fig. 7a source data) (concentration 50, unit not given, time-course reading M140): 0.4767 | Th-T fluorescence of Aβ42 with compound, mean of three wells (Fig. 7a source data) (concentration 50, unit not given, time-course reading M141): 0.4755 | Th-T fluorescence of Aβ42 with compound, mean of three wells (Fig. 7a source data) (concentration 50, unit not given, time-course reading M142): 0.4776
